Experimental data reported in patent publication US10130590B2, “Methods of treating cancer with atovaquone-related compounds” (DANA-FARBER CANCER INSTITUTE, INC., priority 2013, dated 2018).

Experiments:
Type in all cases: cell-based
[1] = test system: endogenous STAT3 target genes; assay: qRT-PCR of endogenous STAT3 target genes; details: U266, INA-6 and HEL cells, 6 hours
Procedure: Total RNA was reverse transcribed using random hexamers and assayed by qRT-PCR as previously described (see, Grivennikov S I, Greten F R, & Karin M (2010) Immunity, inflammation, and cancer. Cell 140(6):883-899).
Gene expression was analyzed in triplicate, normalized by 18S rRNA, and expressed as mean±SEM. For gene expression microarrays, RNA was isolated by Trizol, purified further on RNeasy columns, and profiled using Affymetrix Human Gene 1.0 ST arrays (Affymetrix). Results were deposited under GEO Accession: GSE46575.
The mechanism by which atovaquone inhibits STAT3 was investigated. STAT3-luc reporter cells were pre-treated with atovaquone (20 μM) for 1 hr, and then stimulated with IL-6 (10 ng/ml) for 15 minutes, 30 minutes, 1 hours, or 2 hours. Since STAT3 transcriptional activity is critically dependent on tyrosine phosphorylation, Western blotting was performed to see if atovaquone affected STAT3 phosphorylation. […] Next, atovaquone was used to treat U266 (2.5 hours), HEL (6 hours), or INA-6 cells (4 hours). […] In U266 and INA-6 cells, the source of STAT3 activation is JAK-dependent IL-6 signaling, while in HEL cells, STAT3 is activated by mutant JAK2-V617F. Given that atovaquone inhibits constitutive STAT3 activation in cancer cells, it was asked whether atovaquone inhibits expression of endogenous STAT3 target genes in this context.

HEL cells = assay: Cell viability (Cell Titer Glo), HEL; details: 72 hours
Procedure: Western blotting was performed as previously described (Battle T E, Arbiser J, & Frank D A (2005) The natural product honokiol induces caspase dependent apoptosis in B-cell chronic lymphocytic leukemia (B-CLL) cells. Blood 106(2):690-697). Antibodies to phospho-MAPK (9101), total MAPK (9102), phospho-Y705 STAT3 (9131), phospho-S6 (2215), total S6 (2217), phospho-4E-BP1 (9451), total 4E-BP1 (9644), total RSK (9355), phospho-S6K (9234, 85 used at 1:5000), total S6K (2708), phospho-eIF2α (9721, used at 1:1000), total eIF2α (5324), ATF4 (11815, used at 1:1000), PDGFRβ (3169), IGF1Rβ (9750), EGFR (2232), and HER2 (2242) were from Cell Signaling Technology. Phospho-RSK antibody was from R&D (AF889). Antibodies to total STAT3 (sc-482) and gp130 (sc-656, used at 1:1000) were from Santa Cruz Biotechnology. Phospho-S727 STAT3 antibody was described previously (229). REDD1 antibody was from Proteintech (10638-1-AP, used at 1:1000). Antibody recognizing full-length and cleaved ATF6 was from Abcam (ab122897, used at 1:1000). Antibodies to tubulin (T5168) and beta actin (A5316) were from Sigma. All antibodies were used at 1:10000 dilution for western blot unless otherwise noted. […] Cell viability was measured as ATP-dependent luminescence by Cell Titer Glo (Promega). […]

mTOR pathway = assay: Western blot of mTOR pathway markers (S6, S6K, 4E-BP1)
Procedure: Western blotting was performed as previously described (Battle T E, Arbiser J, & Frank D A (2005) The natural product honokiol induces caspase dependent apoptosis in B-cell chronic lymphocytic leukemia (B-CLL) cells. Blood 106(2):690-697). Antibodies to phospho-MAPK (9101), total MAPK (9102), phospho-Y705 STAT3 (9131), phospho-S6 (2215), total S6 (2217), phospho-4E-BP1 (9451), total 4E-BP1 (9644), total RSK (9355), phospho-S6K (9234, 85 used at 1:5000), total S6K (2708), phospho-eIF2α (9721, used at 1:1000), total eIF2α (5324), ATF4 (11815, used at 1:1000), PDGFRβ (3169), IGF1Rβ (9750), EGFR (2232), and HER2 (2242) were from Cell Signaling Technology. Phospho-RSK antibody was from R&D (AF889). Antibodies to total STAT3 (sc-482) and gp130 (sc-656, used at 1:1000) were from Santa Cruz Biotechnology. Phospho-S727 STAT3 antibody was described previously (229). REDD1 antibody was from Proteintech (10638-1-AP, used at 1:1000). Antibody recognizing full-length and cleaved ATF6 was from Abcam (ab122897, used at 1:1000). Antibodies to tubulin (T5168) and beta actin (A5316) were from Sigma. All antibodies were used at 1:10000 dilution for western blot unless otherwise noted. For immunoprecipitations, cells were lysed in 500 μl lysis buffer (0.5% NP-40, 150 mM NaCl, 50 mM Tris pH 7.5, with protease and phosphatase inhibitors freshly added at 1:100 [Pierce, PI78443]) on ice for 15 minutes, then centrifuged for 10 minutes at 14,000 RPM and 4° C. The supernatant was transferred to a new tube and incubated with 10 μl JAK2 antibody (Santa Cruz sc-278) or a mix of two TYK2 antibodies, 10 μl of each (Santa Cruz sc-5271 and Cell Signaling Technology 9312). Immunoprecipitation was performed overnight at 4° C. with rotation. The next day, 75 μl of protein A/G beads (Santa Cruz sc-2003) were washed twice in lysis buffer, then incubated with immunoprecipitates overnight as before. The next day, the beads were spun down (1 min. at 7,500 RPM and 4° C.) and washed 3 times with 650 μl lysis buffer for 10 minutes at 4° C. with rotation, then boiled in 50 μl sample buffer+10% β-mercaptoethanol. For Western blot, 20 μl were loaded per lane. For detection of phospho-tyrosine, a mixture of two pan-phospho-tyrosine antibodies (Cell Signaling Technology 9411 and 9416, 1:1000 of each) was used. Antibody to phospho-Y1007/1008 JAK2 was from Cell Signaling 86 Technology (3771, used at 1:1000). Antibody to phospho-Y570 JAK2 was from Millipore (09-241, used at 1:1000). Luminometric Assays Luciferase reporter cell lines were described previously (186). Firefly luciferase values were normalized by concurrent cell viability. Cell viability was measured as ATP-dependent luminescence by Cell Titer Glo (Promega).
K562 cells were treated with atovaquone (20 μM) or rapamycin (10 nM) for 1 hour or 5 hours, then analyzed by Western blot. […] The requirement for prolonged treatment to observe mTOR inhibition raised the possibility that this effect was mediated by an induced factor. To test this hypothesis, cells were pretreated with cycloheximide, a protein synthesis inhibitor. K562 cells were pre-treated with vehicle or cycloheximide (2 μg/ml) for 1 hour, then treated with vehicle or atovaquone (20 μM) for 5 hours. […] Similar results were obtained with actinomycin D, an inhibitor of mRNA synthesis.
To evaluate the role of REDD1, RNA interference was used to knock down its expression in adherent SKBR3 cells, given the relative ease of introducing siRNA into these cells. SKBR3 cells were transfected with control or REDD1 siRNA for 48 hours, then treated with atovaquone (25 μM) for 4 hours.
Next, U266 cells were treated with 12.5 or 25 μM buparvaquone or 1, 5, or 25 μM 2-(4-(trans-decahydronaphth-2-yl)butyl)-3-hydroxy-1,4-naphthoquinone (Sigma analog), or DMSO vehicle control, for 2.5 hours, after which cells were harvested and immunoblots were performed with antibodies for total and phospho STAT3 and total and phospho S6.

[2] = K562, 20 μM, only after 5 hours, efficacy comparable to rapamycin

O=C1C(O)=C([C@H]2CC[C@H](c3ccc(Cl)cc3)CC2)C(=O)c2ccccc21 [atovaquone, trans-2-[4-(4-chlorophenyl)cyclohexyl]-3-hydroxy-1,4-naphthalenedione]
expression of multiple STAT3 target genes [1]: substantially downregulated
viability of HEL cells (HEL cells): killed
phosphorylation of 4E-BP1 (mTOR pathway; [2]): inhibited phosphorylation of 4E-BP1
phosphorylation of ribosomal protein S6 (mTOR pathway; [2]): inhibited phosphorylation
phosphorylation of p70S6K (mTOR pathway; K562, 6 hours): inhibited phosphorylation of p70S6K
inhibition of S6 phosphorylation after cycloheximide pre-treatment (mTOR pathway; K562 and U266, cycloheximide 2 μg/ml 1 hour): blocked in the presence of cycloheximide
inhibition of S6 phosphorylation after REDD1 knock down (mTOR pathway; SKBR3, REDD1 siRNA 48 hours, 25 μM 4 hours): largely blocked
